Experimental data from patent US9829488B2, “Paper-based cellular arrays” (President and Fellows of Havard College, priority 2008, dated 2017).

Tests used:
PC-12 cells [1] = assay: Neuronal differentiation of PC-12 cells in paper-supported MATRIGEL (confocal microscopy, neurites); assay type: cell-based, rat; conditions: 6 days, 100 ng/mL NGF
Text: Next, we assessed whether PC-12 cells maintained in paper-supported three-dimensional matrices were differentiated into neurons using NGF-treatment. We spotted suspensions of PC12 cells in MATRIGEL™ onto paper and suspended the paper in the media supplemented with NGF or with a combination of NGF and the ROCK inhibitor Y27632. Confocal microscopy examination uncovered neuron-like cells with long neurites. The morphology of cells and length of neurites varied when different media/additives were used.

HUVEC = assay: Three-dimensional migration (invasion) of HUVEC cells in MATRIGEL-permeated paper; assay type: cell-based, human
Experimental: A suspension of cells in […]™ (1 μL, 10^7 cells/mL) was spotted onto paper, and the paper was immersed in […]™. […] Migration of the cells into the surrounding […]™ was monitored over time using a fluorescent gel scanner. […] The radius of the cell-containing spot served as the measure of the migration. Cell-containing sheets were suspended in endothelial culture media supplemented with 100 ng/mL VEGF (“VEGF”) or 10 μM of small molecule inhibitor of Rho kinase Y27632 (“Y27632”).

3T3 fibroblasts = assay: Proliferation of 3T3 fibroblasts in MATRIGEL-permeated paper in 96-well plate (Alamar Blue); assay type: cell-based; conditions: colchicine added to the wells
Text: One exemplary method is depicted in FIG. 8. In this method, a paper array of the same size is distributed to each well of the microtiter plate to ensure delivery of nearly identical number of cells per well (FIG. 8A). To illustrate this strategy, 2 mm×4 mm pieces of filter paper were permeated with suspension of 3T3 fibroblasts in MATRIGEL™ and then distributed into the wells of a 96-well plate. Alamar Blue was used to estimate the number of cells. […] 3T3 cells proliferated within MATRIGEL™-soaked paper but not within the MATRIGEL™-free paper (FIG. 8B), and this proliferation was halted when colchicine was added to the wells. This system, therefore, can be used to screen for agents that influence proliferation of cells in three-dimensional arrays.

PC-12 cells [2] = assay: Quantitative PCR of neuronal transcripts NF-L and NPY in PC-12 cells; assay type: cell-based, rat; conditions: 100 ng/mL, day 3 or 4, GAPDH as reference
Experimental: Finally, we compared the differentiation of PC-12 cells maintained in paper-supported MATRIGEL™ (“paper”) with that of cells in paper-free MATRIGEL™ (“3D”) or on MATRIGEL™ coated surfaces (“2D”).
Cells in these matrices were proliferated in serum-containing media or in media supplemented with 100 ng/mL NFG. On day 3 or 4, the samples were processed to isolate mRNA and the level of expression of NF-L or NPY were assessed by quantitative PCR. GAPDH and actin were used as housekeeping controls. ΔΔCT-analysis was performed in the linear range for every primer using GAPDH as a reference. In FIG. 14, each data point is an average of measurements from 3 independent samples. The error bar is one standard deviation.

[3] = test system: PC-12 rat adrenal pheochromocytoma cell line; assay: Proliferation of PC-12 cells in MATRIGEL-permeated paper (phalloidin stain, gel scanner); assay type: cell-based; conditions: serum-containing media, 100 ng/mL NGF
Experimental: First, we assessed the proliferation of PC-12 cells grown in paper in response to NGF. Suspensions of PC12 cells in MATRIGEL™ (1 uL, 5×10^6 cells/mL) were spotted onto filter paper. The paper was placed in serum-containing media (2.5% fetal bovine serum, 15% horse serum in F12K basal media) or serum-containing media supplemented with 100 ng/mL of nerve growth factor (NGF). Cells within paper MATRIGEL™ matrix were cultured for the indicated times, fixed with formaldehyde, and stained with Alexa Fluor 488-conjugated phalloidin. The paper was scanned using a Typhoon fluorescent gel scanner (see FIG. 13A). Error bars are one standard deviation.

## C[C@@H](N)[C@H]1CC[C@H](C(=O)Nc2ccncc2)CC1 [Y27632, reference compound]
PC-12 cells [1]; serum-free media, 5 μM Y27632
  neurites developed by cells: extensive 3D network of interconnected neurites
HUVEC; endothelial culture media + 10 μM Y27632
  outgrowth of cells (migration into surrounding MATRIGEL): promoted

## COc1cc2c(c(OC)c1OC)-c1ccc(OC)c(=O)cc1[C@@H](NC(C)=O)CC2 [colchicine]
3T3 fibroblasts
  proliferation of 3T3 cells within MATRIGEL-soaked paper: halted

## NGF: nerve growth factor
PC-12 cells [2]
  level of NF-L expression: induced
  level of NPY expression: induced
PC-12 cells [1]; serum containing media
  neurites developed by cells: short neurites
PC-12 cells [1]; serum-free media
  neurites developed by cells: longer neurites
[3]
  effect on growth rate of the cells: little effect

## VEGF
HUVEC; EGM with additional 100 ng/mL VEGF, compared with EGM+10 μM Y27632
  radius of the invasion: significantly lower
